{"source": "patent US9994536B2", "about": "“Compounds and methods of treating neurological disorders” (TORREY PINES INSTITUTE FOR MOLECULAR STUDIES, priority 2014, dated 2018)", "key": {"[1]": {"tested_on": "PI3Kα", "test": "Signal transduction analysis, PI3Kα", "format": "cell-based, human", "conditions": "NT2 cells", "excerpt": "(§1) (2). THPI-244 increases sAPPα by a novel mechanism of upregulating TrkA, a neurotrophic receptor. Therefore, in addition to increasing neuroprotective sAPPα and decreasing toxic Aβ, THPI-244 mediated increased TrkA protein levels are expected to provide neurotrophic support. Following the validation of the effect of THPI-244 in increasing sAPPα levels in CHO cells, NT2 cells, AD fibroblasts and human primary neurons, we were interested in identifying the molecular target of THPI-244 for unraveling the molecular mechanism by which it increases sAPPα which in turn can predict toxicity profile and whether to pursue long-term studies. Increased protein levels of both native and phosphorylated form of TrkA in NT2 cells and mouse brains by THPI-244 validated TrkA as the target."}, "[2]": {"tested_on": "sAPPα", "test": "sAPPα ELISA, NT2 cells stably expressing APP751", "format": "cell-based, human", "conditions": "24 h", "protocol": "(5). To confirm the effect of THPI-244 on sAPPα levels in a neuronal cell line and by a tertiary assay, we exposed human Neuron-committed Teratocarcinoma cell line (NT2) stably expressing human APP751 to different concentrations of THPI-244 for 24 h and compared with that of Bryostatin, a classical activator of PKC known to stimulate sAPPα release. […] Levels of sAPPα were measured by ELISA using commercially available kit (cat #27734, IBL-America, Minneapolis, Minn., USA). […] Similar biphasic effect of Bryostatin was confirmed for Aβ42 also, measured again in NT2 stable cells by ELISA (cat #KHB3441, Life Technologies, Grand Island, N.Y., USA). Consistent with sAPPα, THPI-244 decreased Aβ42 levels dose-dependently starting from 50 nM (28%, p<0.05) to 2000 nM (64%, p<0.001) (n=4 independent experiments) (FIG. 1.7). Thus THPI-244 increased non-amyloidogenic processing of APP in NT2 cells."}, "[3]": {"biological_target": "TrkA (Homo sapiens, UniProt P04629)", "sequence (P04629 33-796, species assumed)": "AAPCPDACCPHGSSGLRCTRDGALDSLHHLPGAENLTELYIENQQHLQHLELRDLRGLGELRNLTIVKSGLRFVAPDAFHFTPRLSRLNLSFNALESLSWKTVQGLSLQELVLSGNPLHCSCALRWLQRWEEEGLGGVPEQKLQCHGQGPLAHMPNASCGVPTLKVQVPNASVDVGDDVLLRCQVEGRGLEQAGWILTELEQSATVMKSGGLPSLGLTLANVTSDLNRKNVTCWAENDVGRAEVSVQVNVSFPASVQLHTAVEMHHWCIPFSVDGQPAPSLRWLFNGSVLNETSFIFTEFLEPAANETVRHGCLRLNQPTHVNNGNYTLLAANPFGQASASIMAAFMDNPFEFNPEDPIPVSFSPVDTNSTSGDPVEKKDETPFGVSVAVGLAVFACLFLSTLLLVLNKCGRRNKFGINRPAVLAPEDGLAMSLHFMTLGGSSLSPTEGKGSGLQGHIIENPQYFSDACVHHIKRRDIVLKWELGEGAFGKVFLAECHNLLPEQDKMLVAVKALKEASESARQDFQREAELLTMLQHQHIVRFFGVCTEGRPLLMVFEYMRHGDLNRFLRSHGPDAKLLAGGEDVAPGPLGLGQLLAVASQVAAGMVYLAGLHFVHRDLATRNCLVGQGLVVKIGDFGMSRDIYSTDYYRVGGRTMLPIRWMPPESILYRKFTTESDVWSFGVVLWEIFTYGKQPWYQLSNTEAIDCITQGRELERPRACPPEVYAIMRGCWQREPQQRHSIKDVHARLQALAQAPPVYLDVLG", "test": "Table of THPI-244 analogs: TrkA increase"}, "[4]": {"tested_on": "P75NTR", "test": "Signal transduction analysis, P75NTR", "format": "cell-based, human", "conditions": "NT2 cells", "excerpt": "as §1"}, "[5]": {"tested_on": "human primary neurons", "test": "MTT cytotoxicity assay, human primary neurons", "format": "cell-based", "conditions": "24 h exposure", "excerpt": "(4). Toxicity is another crucial limitation for successful drug development as evidenced by recent failure of γ-secretase inhibitors at the clinical trials due to cytotoxicity (Cole, S L and Vassar, R, 2007, Mol. Neurodeg. 2, 22-47; Doody R S, et al. 2013. N. Eng. J. Med. 369, 341-350). Therefore we measured cytotoxicity by very sensitive MTT assay as described previously (Hayes, C D., et al. 2013, BMC Medicine. 26, 11.81; 23; Hayes, C D., et al., 2012, PLoS One 7, e45841) in human primary neurons obtained from a commercial source (cat #1520, ScienCell, Carlsbad, Calif., USA) and fibroblasts derived directly from AD patients (cat #AG06263C, Coriell Institute Cell repository supported by NINDS, NIH). […] We directly used human neurons for toxicity studies so as to reduce the chances of future failure at a later stage due to toxicity."}, "[6]": {"tested_on": "human primary neurons", "test": "Neurite outgrowth, Sholl analysis of dendritic intersections", "format": "cell-based", "excerpt": "(4). The most important property of THPI-244 is its ability to increase neurite outgrowth and dendritic intersections in human primary neurons. Since both TrkA and sAPPα promote neuron growth and provide trophic support, we tested whether treatment of human primary neurons with THPI-244 induces neurite outgrowth. […] Considering an enormous potential for such an excellent results in human neurons, we did systematic analysis by also treating neurons in the presence of TrkA inhibitor to verify if the increased neurite outgrowth is mediated by TrkA receptor. Sholl analysis using ImageJ software of individual neurons (at least 30 per group) immunostained for MAP2 antibody confirmed our initial findings. […] This confirmed that THPI-244 increases TrkA protein levels which has vital role in regulating neuritic outgrowth."}, "[7]": {"tested_on": "sAPPα in supernatants of 7WD10 cells", "test": "Western blot sAPPα release assay, 7WD10 cells", "format": "cell-based", "conditions": "10 nM, 7WD10 supernatant", "protocol": "(2). To ascertain that hits identified as a result of AlphaLISA assay are not due to artifacts of the detection system, the sAPPα levels were measured by Western blots as a secondary assay downstream of primary HTS to confirm hits or discard artifacts of the AlphaLISA assay. The assay was performed using a range of concentrations of hit compounds (10-5,000 nM). A hit compound named thiazole piperazine #244 (THPI-244) and THPI-326 induced dose-dependent increase of sAPPα in supernatants of 7WD10 cells (FIG. 1.3). […] Since compound THPI-244 increased sAPPα levels more than THPI-326, we focused on THPI-244 for further validation.\nWestern blot sAPPα release assay. 7WD10 cells were grown in 6-well plates and treated with test compounds and SAHA (vorinostat) at several concentrations in duplicate wells. After 24 h of drug exposure, the conditioned media (CM) was collected, centrifuged to remove cell debris and subjected to SDS-PAGE electrophoresis. sAPPα (6E10, mouse IgG from IBL America ltd) was detected using indicated antibody. […] Samples were subjected to SDS-PAGE, transferred and immunoblotted with indicated antibodies and detected by enhanced chemiluminescence method. Quantification of Western blot signals was done using ImageJ software."}, "[8]": {"tested_on": "Wild-type (WT) C57BL/6 mice", "test": "Lethal dose (LD50) study in mice", "format": "in vivo, mouse", "excerpt": "Wild-type (WT) C57BL/6 mice aged about 6 months were used in the study. The compound THPI-244 was initially dissolved in 100% DMSO and then diluted to final 10% DMSO with phosphate buffered saline (PBS). […] Among these 6 mice, 3 mice received repeated injections (i.p) of compound THPI-244 for 5 days."}}, "data": [{"smiles": "O=C(Cc1ccccc1)N[C@H](CNc1nc(CN2CCN(C(=O)Cc3ccccc3)CC2)cs1)c1ccccc1", "note": "[THPI-244]", "values": [{"measurement": "effect on PI3Kα pathway", "setting": "[1]", "result": "activation of PI3Kα"}, {"measurement": "lowest concentration with significant increase of sAPPα", "setting": "[2]", "result": 50, "unit": "nM"}, {"measurement": "% TrkA ⬆", "setting": "[3]", "result": 99, "unit": "%"}, {"measurement": "effect on P75NTR", "setting": "[4]", "result": "did not affect"}, {"measurement": "lowest concentration with significant cytotoxicity", "setting": "[5]", "result": 40, "unit": "µM"}, {"measurement": "number of dendritic intersections", "setting": "[6]; treated 2DIV to 6DIV", "result": "highly significant increase"}, {"measurement": "number of dendritic intersections", "setting": "[6]; with TrkA inhibitor, 2DIV to 6DIV", "result": "almost completely prevented the increased intersections"}, {"measurement": "increase of sAPPα over untreated control cells (Western blot)", "setting": "[7]", "result": 2, "unit": "fold"}, {"measurement": "lethality", "setting": "[8]; 100 mg/kg i.p., 6 mice, monitored for 5 days", "result": "did not result in the death of any of the 6 mice"}, {"measurement": "lethality", "setting": "[8]; 200 mg/kg, single mouse", "result": "survived without visible ill effects"}, {"measurement": "lethality", "setting": "[8]; repeated i.p. injections for 5 days, 3 mice", "result": "None of the mice showed any lethal effect"}]}]}
